Data from patent US20260102501A1, “ANTI-CANCER NUCLEAR HORMONE RECEPTOR-TARGETING COMPOUNDS” (Nuvation Bio Inc., priority 2022, published 2026).
Substitutions are numbered along the chain they refer to. Where a name gives a salt, the structure may show the parent alone. Read-outs that look alike come from different tables or passages of the source. Numbered stars: 1 amine (or outer) side, 2 acyl side, 3 side chain; on linkers, the order of the positions; unused ones are H or OH. Square brackets hold non-standard residues; d marks the D form. Peptide text beside a SMILES is read from it. * marks the point of attachment. X1 = CC(=O)O[C@]1(C(C)=O)CC[C@H]2[C@@H]3CCC4=CC(=O)CCC4=C3[C@@H](c3ccc(*)cc3)C[C@@]21C; Exatecan = CC[C@@]1(O)C(=O)OCc2c1cc1n(c2=O)Cc2c-1nc1cc(F)c(C)c3c1c2[C@@H](N*)CC3; NHCH2OCH2CO = O=C(COCN[*:1])[*:2]; Sar = CNCC(=O)O

Key:
[1] = system: IEC6 cells; experiment: Cell viability assay (CellTiterGlo); settings: Rattus norvegicus, IEC-6, 144 h, read-out: IEC-6 (IC50, nM)
[2] = target: T1, ligand binding domain of the glucocorticoid receptor (HEK293 cells stably expressing) (Homo sapiens, UniProt P04150); experiment: GR antagonism assay (luciferase reporter)
T1 sequence (P04150 524-758 limits assumed): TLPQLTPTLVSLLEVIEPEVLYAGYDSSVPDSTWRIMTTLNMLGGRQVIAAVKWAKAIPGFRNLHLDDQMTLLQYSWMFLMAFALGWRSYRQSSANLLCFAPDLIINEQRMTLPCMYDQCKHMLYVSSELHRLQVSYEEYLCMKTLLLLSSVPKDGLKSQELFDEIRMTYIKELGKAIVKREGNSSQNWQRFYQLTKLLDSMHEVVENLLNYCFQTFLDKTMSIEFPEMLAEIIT

[3] = target: T2, AR (cytosol from LnCaP cells) (Homo sapiens, UniProt P10275, T878A); experiment: AR binding assay (3H-R1881 displacement)
T2 sequence (P10275 1-920 T878A): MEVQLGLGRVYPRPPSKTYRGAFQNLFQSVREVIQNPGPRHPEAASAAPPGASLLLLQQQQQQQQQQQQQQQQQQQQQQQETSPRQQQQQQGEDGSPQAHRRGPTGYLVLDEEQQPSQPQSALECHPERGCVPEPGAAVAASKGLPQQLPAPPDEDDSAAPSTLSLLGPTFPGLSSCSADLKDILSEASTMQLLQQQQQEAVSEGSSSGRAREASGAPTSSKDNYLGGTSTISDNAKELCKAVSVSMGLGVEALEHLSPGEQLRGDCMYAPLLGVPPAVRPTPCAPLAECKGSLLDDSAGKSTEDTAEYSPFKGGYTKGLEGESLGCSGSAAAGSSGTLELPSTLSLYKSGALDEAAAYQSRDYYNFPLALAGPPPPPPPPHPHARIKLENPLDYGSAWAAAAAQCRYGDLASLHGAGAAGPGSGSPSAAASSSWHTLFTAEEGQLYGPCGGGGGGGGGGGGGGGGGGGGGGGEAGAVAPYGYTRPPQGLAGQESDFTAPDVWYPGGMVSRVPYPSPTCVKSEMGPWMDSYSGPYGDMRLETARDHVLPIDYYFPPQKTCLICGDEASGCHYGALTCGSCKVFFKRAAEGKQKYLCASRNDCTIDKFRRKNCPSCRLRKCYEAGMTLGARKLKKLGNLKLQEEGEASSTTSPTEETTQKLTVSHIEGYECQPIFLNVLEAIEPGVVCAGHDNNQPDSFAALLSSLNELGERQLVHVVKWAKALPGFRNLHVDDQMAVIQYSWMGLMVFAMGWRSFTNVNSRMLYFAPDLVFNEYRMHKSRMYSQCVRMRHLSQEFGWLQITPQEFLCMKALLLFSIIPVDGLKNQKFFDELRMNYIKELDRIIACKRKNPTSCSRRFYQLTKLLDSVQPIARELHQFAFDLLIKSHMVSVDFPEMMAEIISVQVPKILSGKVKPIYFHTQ
Description: The plate was then centrifuged at 3000 rpm for 30 minutes at 4° C.

[4] = system: LNCap cells; experiment: Cell viability assay (CellTiterGlo); type: cell-based; settings: Homo sapiens, 144 h
[5] = target: T3, full-length androgen receptor (HEK293 cells stably expressing) (Homo sapiens, UniProt P10275); experiment: AR antagonism assay (luciferase reporter)
T3 sequence (P10275 1-920): T2 sequence (P10275 1-920 T878A) with A878T

[6] = 6 days incubation, CellTiterGlo, read-out: LNCap (IC50)

Row | Structure (SMILES) | IC50 [1] [nM] | IC50 [2] [nM] | IC50 [3] [nM] | IC50 ([4]; read-out: LNCap (IC50, nM)) [nM] | IC50 [5] [nM] | IC50 [4, 6] [nM]
1 | CC[C@@]1(O)C(=O)OCc2c1cc1n(c2=O)Cc2cc3c(CN4CCN(C(=O)C5CCN(c6ccc(C(=O)N[C@H]7CC[C@H](Oc8ccc(C#N)c(Cl)c8C)CC7)nn6)CC5)CC4)c(OC(=O)N4C[C@H](C)N(C)C[C@H]4C)ccc3nc2-1 [Compound 30, (S)-10-((4-(1-(6-(((1r,4r)-4-(3-Chloro-4-cyano-2-methylphenoxy)cyclohexyl)carbamoyl)-pyridazin-3-yl)piperidine-4-carbonyl)piperazin-1-yl)methyl)-4-ethyl-4-hydroxy-3,14-dioxo-3,4,12,14-tetrahydro-1H-pyrano[3′,4′:6,7]indolizino[1,2-b]quinolin-9-yl (2R,5S)-2,4,5-trimethylpiperazine-1-carboxylate Formate] | > 1000 | > 1000 | < 10 | 10 to 100 | > 1000 | 
2 | CC[C@@]1(O)C(=O)OCc2c1cc1n(c2=O)Cc2cc3c(CN(C)C)c(OC(=O)N4CCN(CC5CCN(c6ccc(C(=O)N[C@H]7CC[C@H](Oc8ccc(C#N)c(Cl)c8C)CC7)nn6)CC5)CC4)ccc3nc2-1 [Compound 31, (S)-10-((Dimethylamino)methyl)-4-ethyl-4-hydroxy-3,14-dioxo-3,4,12,14-tetrahydro-1H-pyrano[3′,4′:6,7]indolizino[1,2-b]quinolin-9-yl 4-((1-(6-(((1r,4r)-4-(3-chloro-4-cyano-2-methylphenoxy)cyclohexyl)carbamoyl)pyridazin-3-yl)piperidin-4-yl)methyl)piperazine-1-carboxylate Formate] | 101 to 1000 | > 1000 | < 10 | 10 to 100 | > 1000 | 
3 | CC[C@@]1(O)C(=O)OCc2c1cc1n(c2=O)Cc2c-1nc1cc(F)c(C)c3c1c2[C@@H](NC(=O)COCNC(=O)CNC(=O)[C@H](Cc1ccccc1)NC(=O)CNC(=O)CN(C)c1ccc([C@H]2C[C@@]4(C)[C@@H](CC[C@]4(OC(C)=O)C(C)=O)[C@@H]4CCC5=CC(=O)CCC5=C42)cc1)CC3 [Compound 34, (8S,11R,13S,14S,17R)-17-Acetyl-11-(4-(((S)-10-benzyl-1-(((1S,9S)-9-ethyl-5-fluoro-9-hydroxy-4-methyl-10,13-dioxo-2,3,9,10,13,15-hexahydro-1H,12H-benzo[de]pyrano[3′,4′:6,7]indolizino[1,2-b]quinolin-1-yl)amino)-1,6,9, 12,15-pentaoxo-3-oxa-5,8,11,14-tetraazahexadecan-16-yl)(methyl)amino)phenyl)-13-methyl-3-oxo-2,3,6,7,8,11,12,13,14,15,16,17-dodecahydro-1H-cyclopenta[a]phenanthren-17-yl Acetate] (X1-[Sar]GFG[NHCH2OCH2CO]-Exatecan) | 101 to 1000 | 101 to 1000 | 10 to 100 |  | > 1000 | 
4 | CC[C@@]1(O)C(=O)OCc2c1cc1n(c2=O)Cc2cc3c(CN4CCN(CCCCCCN(C)c5ccc([C@H]6C[C@@]7(C)[C@@H](CC[C@]7(OC(C)=O)C(C)=O)[C@@H]7CCC8=CC(=O)CCC8=C76)cc5)CC4)c(O)ccc3nc2-1 [Compound 36, (8S,11R,13S,14S,17R)-17-acetyl-11-(4-((6-(4-(((S)-4-ethyl-4,9-dihydroxy-3,14-dioxo-3,4,12,14-tetrahydro-1H-pyrano[3′,4′:6,7]indolizino[1,2-b]quinolin-10-yl)methyl)piperazin-1-yl)hexyl)(methyl)amino)phenyl)-13-methyl-3-oxo-2,3,6,7,8,11,12,13,14,15,16,17-dodecahydro-1H-cyclopenta[a]phenanthren-17-yl acetate] | 101 to 1000 | < 10 | 10 to 100 |  | 101 to 1000 | 10 to 100
5 | CC[C@@]1(O)C(=O)OCc2c1cc1n(c2=O)Cc2c-1nc1cc(F)c(C)c3c1c2[C@@H](N(C)C(=O)COCC1CCN(CCCCCCCN(C)c2ccc([C@H]4C[C@@]5(C)[C@@H](CC[C@]5(OC(C)=O)C(C)=O)[C@@H]5CCC6=CC(=O)CCC6=C54)cc2)CC1)CC3 [Compound 55, (8S,11R,13S,14S,17R)-17-acetyl-11-(4-((7-(4-((2-(((1S,9S)-9-ethyl-5-fluoro-9-hydroxy-4-methyl-10,13-dioxo-2,3,9,10,13,15-hexahydro-1H,12H-benzo[de]pyrano[3′,4′:6,7]indolizino[1,2-b]quinolin-1-yl)(methyl)amino)-2-oxoethoxy)methyl)piperidin-1-yl)heptyl)(methyl)amino)phenyl)-13-methyl-3-oxo-2,3,6,7,8,11,12,13,14,15,16,17-dodecahydro-1H-cyclopenta[a]phenanthren-17-yl acetate] | > 1000 | 10 to 100 | 10 to 100 |  | 101 to 1000 | 101 to 1000
6 | CC[C@@]1(O)C(=O)OCc2c1cc1n(c2=O)Cc2cc3c(CN(C)C)c(OCC4CCN(C(=O)CN(C)c5ccc([C@H]6C[C@@]7(C)[C@@H](CC[C@]7(OC(C)=O)C(C)=O)[C@@H]7CCC8=CC(=O)CCC8=C76)cc5)CC4)ccc3nc2-1 [Compound No. 19, (8S,11R,13S,14S,17R)-17-Acetyl-11-(4-((2-(4-((((S)-10-((dimethylamino)methyl)-4-ethyl-4-hydroxy-3,14-dioxo-3,4,12,14-tetrahydro-1H-pyrano[3′,4′:6,7]indolizino[1,2-b]quinolin-9-yl)oxy)methyl)-piperidin-1-yl)-2-oxoethyl)(methyl)amino)phenyl)-13-methyl-3-oxo-2,3,6,7,8,11,12,13,14,15,16,17-dodeca-hydro-1H-cyclopenta[a]phenanthren-17-yl acetate] | > 1000 | 10 to 100 | 10 to 100 |  | > 1000 | 101 to 1000
7 | CC[C@@]1(O)C(=O)OCc2c1cc1n(c2=O)Cc2c-1nc1cc(F)c(C)c3c1c2[C@@H](NC(=O)COCCCCCCN(C)c1ccc([C@H]2C[C@@]4(C)[C@@H](CC[C@]4(OC(C)=O)C(C)=O)[C@@H]4CCC5=CC(=O)CCC5=C42)cc1)CC3 [Compound No. 47, (8S,11R,13S,14S,17R)-17-acetyl-11-(4-((6-(2-(((1S,9S)-9-ethyl-5-fluoro-9-hydroxy-4-methyl-10,13-dioxo-2,3,9,10,13,15-hexahydro-1H,12H-benzo[de]pyrano [3′,4′:6,7]indolizino[1,2-b]quinolin-1-yl)amino)-2-oxoethoxy)hexyl)(methyl)amino)phenyl)-13-methyl-3-oxo-2,3,6,7,8,11,12,13,14,15,16,17-dodecahydro-1H-cyclopenta[a]phenanthren-17-yl acetate] | 101 to 1000 | 101 to 1000 | 10 to 100 |  | 10 to 100 | 10 to 100
